Test results from the NIST ThermoML archive (doi:10.1021/je034076x).
± gives the expanded uncertainty stated by the source.

Conditions: 101.33 kPa, Liquid; for viscosity: Capillary tube (Ostwald / Ubbelohde) method; for speed of sound: Pulse-echo method; for mass density: Vibrating tube method

Structure (SMILES)	viscosity (283.15 K) [mPa·s]	speed of sound (283.15 K) [m/s]	mass density (283.15 K) [kg/m3]	viscosity (298.15 K) [mPa·s]	speed of sound (298.15 K) [m/s]	mass density (298.15 K) [kg/m3]	viscosity (313.15 K) [mPa·s]	speed of sound (313.15 K) [m/s]	mass density (313.15 K) [kg/m3]
OCC(F)(F)F [2,2,2-trifluoroethanol]	2.694 ± 0.02	872.7 ± 0.5	1408.1 ± 0.3	1.755 ± 0.013	833.2 ± 0.5	1382.56 ± 0.28	1.208 ± 0.0095	793.3 ± 0.5	1356.89 ± 0.27
C1CCOC1 [tetrahydrofuran]	0.5438 ± 0.0055	1348.8 ± 1.2	898.62 ± 0.47	0.4645 ± 0.0048	1279 ± 1.2	882.18 ± 0.46	0.3992 ± 0.0043	1204.8 ± 1.2	865.95 ± 0.45
